Measured values taken from US20100040679A1, “Compositions for Reducing Nicotine Withdrawal Symptoms and/or Tobacco Usage” (priority 2006, published 2010).

How the values were obtained:
nicotine dependent rats = test: mecamylamine-precipitated nicotine abstinence signs in nicotine dependent rats; format: in vivo, Sprague-Dawley rats; settings: 1 mg/kg subcutaneous; 30 minutes; FIG. 2
Method: A study was conducted to compare the effects of low doses of dextromethorphan (1 mg/kg) alone, cotinine (1 mg/kg) alone, and a dextromethorphan plus cotinine combination (1 mg/kg each) versus placebo (saline) for their effect on nicotine dependence. The subjects were 30 male Sprague-Dawley rats, weighing between 282-372 grams each. All subjects were implanted subcutaneously with an Alza 2ML1 osmotic minipump under aseptic conditions and halothane anesthesia.
All subjects were rendered nicotine dependent by seven days infusion with 9 mg/kg/day nicotine bitartrate (3.15 mg/kg expressed as the base) in saline from the subcutaneous minipump. On the 7th day of infusion, each subject received two subcutaneous injections. Group 1 (n=8) received two injections of saline vehicle only. Group 2 (n=7) received a subcutaneous injection of saline and an subcutaneous injection of 1 mg/kg cotinine in saline. Group 3 (n=8) received a subcutaneous injection of saline and a subcutaneous injection of 1 mg/kg dextromethorphan. Group 4 (n=7) received a subcutaneous injection of 1 mg/kg cotinine and 1 mg/kg dextromethorphan. […] These low doses were intended to prevent any ceiling effect which may have masked the benefit of adding a second medication. The injection volumes in every case were […]. […]

[1] = tested on: mecamylamine-precipitated nicotine withdrawal syndrome; test: previous study of mecamylamine-precipitated nicotine withdrawal syndrome; format: in vivo; settings: dose 1 mg/kg, given alone
Method: All subjects were rendered nicotine dependent by seven days infusion with 9 mg/kg/day nicotine bitartrate (3.15 mg/kg expressed as the base) in saline from the subcutaneous minipump. On the 7th day of infusion, each subject received two subcutaneous injections. Group 1 (n=8) received two injections of saline vehicle only. Group 2 (n=7) received a subcutaneous injection of saline and an subcutaneous injection of 1 mg/kg cotinine in saline. Group 3 (n=8) received a subcutaneous injection of saline and a subcutaneous injection of 1 mg/kg dextromethorphan. Group 4 (n=7) received a subcutaneous injection of 1 mg/kg cotinine and 1 mg/kg dextromethorphan. […] These low doses were intended to prevent any ceiling effect which may have masked the benefit of adding a second medication. The injection volumes in every case were 1 mg/kg.

[2] = rat brain after peripheral nicotine administration; Dwoskin et al 1999; cited from earlier work
[3] = humans; estimated by Benowitz 1983; cited from earlier work

Row | SMILES | Miscellaneous Less-Frequent Signs (category of nicotine abstinence signs) (nicotine dependent rats) | effects in reducing mecamylamine-precipitated nicotine withdrawal syndrome [1] | abundance as nicotine metabolite in brain [2] | systemically absorbed nicotine metabolized to cotinine [3]
1 | CN1C(=O)CC[C@H]1c1cccnc1 [cotinine] | tied for lowest | only minimal effects | most abundant metabolite in rat brain | –
2 | COc1ccc2c(c1)[C@]13CCCC[C@@H]1[C@H](C2)N(C)CC3 [dextromethorphan, reference compound] | – | only minimal effects | – | –
3 | CN1CCCC1c1cccnc1 (centres unmarked) [nicotine] | – | – | – | 86%
